Source: article PMC3510080, “Identification of Compounds with Anti-Proliferative Activity against Trypanosoma brucei brucei Strain 427 by a Whole Cell Viability Based HTS Campaign” (PLoS Neglected Tropical Diseases, 2012)

How the values were obtained:
[1] = system: T. cruzi Tulahuen strain C2C4; assay: T. cruzi Tulahuen strain C2C4 β-galactosidase assay; SI versus L6 cells; assay type: cell-based, Trypanosoma cruzi
Experimental: (§1) L6 rat skeletal myoblasts, [29] were purchased from the American Type Culture Collection (ATCC, Rockville, MD, USA; ATCC number CRL 1458). This cell line was used for cytotoxicity testing to calculate an SI against T.b. rhodesiense and screened alongside the T.b. rhodesiense, P. falciparum, T. cruzi and L. donovani assays. L6 were also the host cells for the T. cruzi assay. Assays were performed in 96-well microtiter plates, each well containing 100 µl of RPMI 1640 medium supplemented with 1% L-glutamine (200 mM), 10% FCS, and 4000 L6 cells. Serial drug dilutions of eleven 3-fold dilution steps covering a range from 100 to 0.002 µg/ml were prepared. After 70 hours of incubation the plates were inspected under an inverted microscope to assure growth of the controls and sterile conditions. Ten µl of resazurin solution (resazurin, 12.5 mg in 100 ml double-distilled water) was then added to each well and the plates incubated for another 2 hours. Then the plates were read with a Spectramax Gemini XS microplate fluorometer (Molecular Devices Cooperation, Sunnyvale, CA, USA) using an excitation wavelength of 536 nm and an emission wavelength of 588 nm. Data was analysed using the microplate reader software Softmax Pro (Molecular Devices, USA). Podophyllotoxin was used as a positive control in the assay.
Rat skeletal myoblasts (L6 cells) were seeded in 96-well microtitre plates at 2000 cells/well in 100 µl RPMI 1640 medium with 10% FCS and 2 mM l-glutamine. After 24 hours the medium was removed and replaced by 100 µl per well containing 5000 trypomastigote forms of T. cruzi Tulahuen strain C2C4 containing the β-galactosidase (Lac Z) gene. After 48 hours the medium was removed from the wells and replaced by 100 µl fresh medium with or without a serial drug dilution of eleven 3-fold dilution steps covering a range from 100 to 0.002 µg/ml. After 96 hours of incubation the plates were inspected under an inverted microscope to assure growth of the controls and sterility. Then 50 µl of the substrate, containing chlorophenol red-β-D-galactopyranoside (CPRG) and Nonidet, was added to all wells. A colour reaction developed within 2–6 hours that could be read photometrically at 540 nm. Data were transferred into the graphic programme Softmax Pro (Molecular Devices, USA), which calculated IC50 values. The drug benznidazole was used as a positive standard in this assay.

P. falciparum K1 strain = assay: P. falciparum 3H-hypoxanthine incorporation assay; SI versus L6 cells; assay type: cell-based, Plasmodium falciparum; details: Plasmodium falciparum, K1, L6, read-out: Reference Compound Activity P.F (IC50)
Experimental: as §1
Compounds dissolved in DMSO at 10 mg/ml were added to parasite cultures incubated in RPMI 1640 medium without hypoxanthine, supplemented with HEPES (5.94 g/l), NaHCO3 (2.1 g/l), neomycin (100 U/ml), Albumax (5 g/l) and washed human A^+ red blood cells at 2.5% haematocrit (0.3% parasitaemia). Serial drug dilutions of eleven 3-fold dilution steps covering a range from 100 to 0.002 µg/ml were prepared. The 96-well plates were incubated in a humidified atmosphere at 37°C; 4% CO2, 3% O2, 93% N2. After 48 hours, 50 µl of ^3H-hypoxanthine ( = 0.5 µCi) was added to each well of the plate. The plates were incubated for a further 24 hours under the same conditions. The plates were then harvested with a Betaplate cell harvester (Wallac, Zurich, Switzerland), and the red blood cells transferred onto a glass fibre filter then washed with distilled water. The dried filters were inserted into a plastic foil with 10 ml of scintillation fluid, and counted in a Betaplate liquid scintillation counter (Wallac, Zurich, Switzerland). IC50 values were calculated from sigmoidal inhibition curves using Microsoft Excel.

T.b. rhodesiense STIB900 = assay: T. b. rhodesiense STIB900 assay (resazurin); SI versus L6 cells; assay type: cell-based, Trypanosoma brucei rhodesiense
Experimental: as §1
T.b. rhodesiense STIB900 stock was isolated in 1982 from a human patient in Tanzania and after several mouse passages cloned and adapted to axenic culture conditions. Fifty microliters of Minimum Essential Medium (MEM) supplemented with 25 mM HEPES, 1 g/l additional glucose, 1% MEM non-essential amino acids (100×), 0.2 mM 2-mercaptoethanol, 1 mM Na-pyruvate and 15% heat inactivated horse serum was added to each well of a 96-well microtiter plate. Serial drug dilutions of eleven 3-fold dilution steps covering a range from 100 to 0.002 µg/ml were prepared. Four thousand bloodstream form cells of T.b. rhodesiense STIB 900 in 50 µl were added to each well and the plate incubated at 37°C under a 5% CO2 atmosphere for 70 hours. Ten microlitres of resazurin solution (resazurin, 12.5 mg in 100 ml double-distilled water) was then added to each well and incubation continued for a further 2–4 hours. Plates were then read with a Spectramax Gemini XS microplate fluorometer (Molecular Devices, USA) using an excitation wavelength of 536 nm and an emission wavelength of 588 nm. Data was analysed using the microplate reader software Softmax Pro (Molecular Devices, USA). The drug melarsoprol was a positive control against T.b. rhodesiense.

[2] = system: L. donovani strain MHOM/ET/67/L82 axenic amastigotes; assay: L. donovani axenic amastigote fluorescence assay; SI versus L6 cells; assay type: cell-based, Leishmania donovani
Experimental: as §1
Amastigotes of L. donovani strain MHOM/ET/67/L82 were grown in axenic culture at 37°C in SM medium at pH 5.4 supplemented with 10% heat-inactivated FCS under an atmosphere of 5% CO2 in air. One hundred µl of culture medium containing 10^5 amastigotes from axenic culture with or without a serial drug dilution were seeded in 96-well microtitre plates. Serial drug dilutions of eleven 3-fold dilution steps covering a range from 100 to 0.002 µg/ml were prepared. After 70 hours of incubation the plates were inspected under an inverted microscope to assure growth of the controls and sterile conditions. Ten µl of resazurin solution (12.5 mg resazurin dissolved in 100 ml distilled water) were then added to each well and the plates incubated for another 2 hours. The plates were then read with a Spectramax Gemini XS microplate fluorometer (Molecular Devices, USA) using an excitation wavelength of 536 nm and an emission wavelength of 588 nm. Data was analysed using the software Softmax Pro (Molecular Devices, USA). Decrease of fluorescence ( = inhibition) was expressed as percentage of the fluorescence of control cultures and plotted against the drug concentrations. From the sigmoidal inhibition curves the IC50 values were calculated. Miltefosine served as a known drug control in this assay.

With O=C(Cn1ccnc1[N+](=O)[O-])NCc1ccccc1 [Benznidazole, benznidazole, reference compound] the IC50 ([1]; Trypanosoma cruzi, TULAHUEN, L6, positive standard, read-out: Reference Compound Activity T.C (IC50)) was 1680 ± 1930 nM and the “Selectivity Index T.C” value ([1]; relative to L6 cells) was over 206.

For CCN(CC)CCCC(C)Nc1ccnc2cc(Cl)ccc12 (stereo not shown) [Chloroquine, reference compound], the IC50 (P. falciparum K1 strain) was 164 ± 24.7 nM.

With Nc1nc(N)nc(Nc2ccc([As]3SCC(CO)S3)cc2)n1 (stereo not shown) [Melarsoprol, melarsoprol, reference compound] the IC50 (T.b. rhodesiense STIB900; Trypanosoma brucei, L6, read-out: Reference Compound Activity T.R (IC50)) was 6.28 ± 1.78 nM and the “Selectivity Index T.R” value (T.b. rhodesiense STIB900; relative to L6 cells) was 2915.

CCCCCCCCCCCCCCCCOP(=O)([O-])OCC[N+](C)(C)C [Miltefosine, reference compound] was tested, and the IC50 ([2]; Leishmania donovani, L6, known drug control, read-out: Reference Compound Activity L.D (IC50)) was 365 ± 93.7 nM and the “Selectivity Index L.D” value ([2]; relative to L6 cells) was 392.
